How the values were obtained:
[1] = target: Recombinant human JAK2 kinase domain protein (Residues 812-1132) (Homo sapiens, UniProt O60674); assay: JAK2 biochemical assay (LabChip mobility shift, Ki); conditions: Biochem JAK2 Ki
[2] = target: T1, recombinant human JAK1 kinase domain protein (Residues 854-1154) (Homo sapiens, UniProt P23458); assay: JAK1 biochemical assay (LabChip mobility shift, Ki); conditions: read-out: Biochem JAK1 Ki
T1 construct: human JAK1 kinase domain protein (Residues 854-1154); purchased Proteros Biostructures GmbH (Martinsried, Germany); host or cells: insect cells
T1 sequence (P23458 854-1154): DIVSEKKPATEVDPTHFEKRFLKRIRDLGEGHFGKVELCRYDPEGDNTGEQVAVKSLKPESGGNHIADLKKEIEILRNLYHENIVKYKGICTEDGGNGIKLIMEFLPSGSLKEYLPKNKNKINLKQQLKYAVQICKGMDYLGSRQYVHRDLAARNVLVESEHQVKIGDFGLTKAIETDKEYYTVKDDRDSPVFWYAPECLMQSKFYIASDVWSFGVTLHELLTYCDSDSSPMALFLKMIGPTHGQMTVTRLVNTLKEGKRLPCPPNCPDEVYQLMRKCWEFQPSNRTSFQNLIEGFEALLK

[3] = test system: IL-13-stimulated STAT6 phosphorylation in human lung bronchial epithelial BEAS-2B cell line; assay: P-STAT6 BEAS-2B + IL-13 cell assay; format: cell-based; conditions: Homo sapiens, BEAS-2B, BEAS2B cells, IL13 stimulation; read-out: Cellular JAK1 PSTAT6 BEAS2B + IL13
Procedure, shortened: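 BEAS-2B cells grown 48 h at 37 °C, pre-treated 1 h with compound (10-point 1:2 dilution curve), then stimulated 15 min with human recombinant IL-13 (250 ng/mL stock). Lysate P-STAT6 (Tyr641) read by MSD sandwich ELISA with total-STAT6 capture; IC50 from four-parameter logistic fit of control-normalised data.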

Chain of Recombinant human JAK2 kinase domain protein (Residues 812-1132) (O60674 812-1132): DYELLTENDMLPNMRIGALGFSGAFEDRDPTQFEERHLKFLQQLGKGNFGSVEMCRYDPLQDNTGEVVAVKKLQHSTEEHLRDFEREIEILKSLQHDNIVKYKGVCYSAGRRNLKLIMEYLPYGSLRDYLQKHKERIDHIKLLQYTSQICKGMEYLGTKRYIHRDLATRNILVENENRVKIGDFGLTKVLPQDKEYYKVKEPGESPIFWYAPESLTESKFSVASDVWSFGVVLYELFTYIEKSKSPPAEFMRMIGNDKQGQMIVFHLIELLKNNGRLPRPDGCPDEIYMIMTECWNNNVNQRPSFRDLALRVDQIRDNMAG

Row | Ki [1] | Ki [2] | Structure (SMILES) | IC50 [3]
1 | 1.4 nM | 2.2 nM | Cn1cc(NC(=O)c2cnn3cccnc23)c(-c2cc(Oc3cccnn3)ccc2OC(F)F)n1 [Example 204, N-[3-[2-(difluoromethoxy)-5-pyridazin-3-yloxy-phenyl]-1-methyl-pyrazol-4-yl]pyrazolo[1,5-a]pyrimidine-3-carboxamide] | 56 nM
2 | 0.37 nM | 0.54 nM | CN(C)C(=O)c1cncc(Oc2ccc(OC(F)F)c(-c3nn(C)cc3NC(=O)c3cnn4cccnc34)c2)c1 [Example 159, N-[3-[2-(difluoromethoxy)-5-[[5-(dimethylcarbamoyl)-3-pyridyl]oxy]phenyl]-1-methyl-pyrazol-4-yl]pyrazolo[1,5-a]pyrimidine-3-carboxamide] | 43 nM
3 | 0.23 nM | 0.29 nM | Cn1cc(NC(=O)c2cnn3cccnc23)c(-c2cc(Oc3cnn([C@H]4CNCC[C@@H]4O)c3)ccc2OC(F)F)n1 (stereo in doubt) [Example 180, N-[3-[2-(difluoromethoxy)-5-[1-[rac-(3S,4S)-4-hydroxy-3-piperidyl]pyrazol-4-yl]oxy-phenyl]-1-methyl-pyrazol-4-yl]pyrazolo[1,5-a]pyrimidine-3-carboxamide] | 95 nM
4 | 0.76 nM | 2.6 nM | Cn1cc(NC(=O)c2cnn3cccnc23)c(-c2cc(Oc3ccc(CN4CCC[C@H](CO)C4)cc3)ccc2OC(F)F)n1 (racemic) [Example 162, 3-[2-(difluoromethoxy)-5-[4-[[rac-(3S)-3-(hydroxymethyl)-1-piperidyl]methyl]phenoxy]phenyl]-1-methyl-pyrazol-4-yl]pyrazolo[1,5-a]pyrimidine-3-carboxamide] | 32 nM
5 | 0.19 nM | 0.54 nM | CN1CCC(O)(Cn2cc(Oc3ccc(OC(F)F)c(-c4nn(C)cc4NC(=O)c4cnn5cccnc45)c3)cn2)CC1 [Example 191, N-[3-[2-(difluoromethoxy)-5-[1-[(4-hydroxy-1-methyl-4-piperidyl)methyl]pyrazol-4-yl]oxy-phenyl]-1-methyl-pyrazol-4-yl]pyrazolo[1,5-a]pyrimidine-3-carboxamide] | 110 nM
6 | 0.92 nM | 1.6 nM | Cn1cc(Oc2ccc(OC(F)F)c(-c3nn(CC(N)=O)cc3NC(=O)c3cnn4cccnc34)c2)cn1 [Example 174, N-[1-(2-amino-2-oxo-ethyl)-3-[2-(difluoromethoxy)-5-(1-methylpyrazol-4-yl)oxy-phenyl]pyrazol-4-yl]pyrazolo[1,5-a]pyrimidine-3-carboxamide] | 240 nM
7 | 0.23 nM | 0.46 nM | Cc1nn(C)cc1Oc1ccc(OC(F)F)c(-c2nn(C)cc2NC(=O)c2cnn3cccnc23)c1 [Example 153, N-[3-[2-(difluoromethoxy)-5-(1,3-dimethylpyrazol-4-yl)oxy-phenyl]-1-methyl-pyrazol-4-yl]pyrazolo[1,5-a]pyrimidine-3-carboxamide] | 27 nM
8 | 1.5 nM | 3.2 nM | Cn1cc(NC(=O)c2cnn3cccnc23)c(-c2cc(Oc3ccc(CN4CCCC(O)C4)cc3)ccc2OC(F)F)n1 (racemic) [Example 164, N-[3-[2-(difluoromethoxy)-5-[4-[[rac-(3S)-3-hydroxy-1-piperidyl]methyl]phenoxy]phenyl]-1-methyl-pyrazol-4-yl]pyrazolo[1,5-a]pyrimidine-3-carboxamide] | 38 nM

More lines, now with the values behind:

Row | Structure (SMILES) | Ki [1] | Ki [2] | IC50 [3]
9 | N#CCc1ccc(Oc2ccc(OC(F)F)c(-c3n[nH]cc3NC(=O)c3cnn4cccnc34)c2)cc1 [Example 8, N-[3-[5-[4-(cyanomethyl)phenoxy]-2-(difluoromethoxy)phenyl]-1H-pyrazol-4-yl]pyrazolo[1,5-a]pyrimidine-3-carboxamide] | 0.14 nM | 0.18 nM | 7.6 nM
10 | CN(CCO)Cc1cccc(Oc2ccc(OC(F)F)c(-c3nn(C)cc3NC(=O)c3cnn4cccnc34)c2)c1 [Example 22] | 0.31 nM | 0.34 nM | 22 nM
11 | CC(C)(C#N)c1ccc(Oc2ccc(OC(F)F)c(-c3n[nH]cc3NC(=O)c3cnn4cccnc34)c2)cc1 [Example 67, N-[3-[5-[4-(1-cyano-1-methyl-ethyl)phenoxy]-2-(difluoromethoxy)phenyl]-1H-pyrazol-4-yl]pyrazolo[1,5-a]pyrimidine-3-carboxamide] | 1.2 nM | 2.1 nM | 25 nM
12 | NCc1ccccc1Oc1ccc(OC(F)F)c(-c2n[nH]cc2NC(=O)c2cnn3cccnc23)c1 [Example 7, N-[3-[5-[2-(aminomethyl)phenoxy]-2-(difluoromethoxy)phenyl]-1H-pyrazol-4-yl]pyrazolo[1,5-a]pyrimidine-3-carboxamide] | 1.9 nM | 1.5 nM | 360 nM
13 | Cn1cc(NC(=O)c2cnn3cccnc23)c(-c2cc(Oc3ccc(C4(CC#N)COC4)cc3)ccc2OC(F)F)n1 [Example 147] | 0.22 nM | 0.28 nM | 19 nM
14 | CN1CCC[C@H]1Cn1cc(NC(=O)c2cnn3cccnc23)c(-c2cc(Oc3ccccc3)ccc2OC(F)F)n1 (racemic) [Example 31, N-[3-[2-(difluoromethoxy)-5-phenoxy-phenyl]-1-[[rac-(2R)-1-methylpyrrolidin-2-yl]methyl]pyrazol-4-yl]pyrazolo[1,5-a]pyrimidine-3-carboxamide] | 0.86 nM | 0.37 nM | 9.2 nM
15 | Cn1cc(NC(=O)c2cnn3cccnc23)c(-c2cc(Oc3cc(F)cc(C4(O)CNC4)c3)ccc2OC(F)F)n1 [Example 95, N-[3-[2-(difluoromethoxy)-5-[3-fluoro-5-(3-hydroxyazetidin-3-yl)phenoxy]phenyl]-1-methyl-pyrazol-4-yl]pyrazolo[1,5-a]pyrimidine-3-carboxamide] | 0.23 nM | 0.17 nM | 110 nM
16 | Cn1cc(NC(=O)c2cnn3cccnc23)c(-c2cc(Oc3cccc([C@H]4CNCCO4)c3)ccc2OC(F)F)n1 (racemic) [Example 42, N-[3-[2-(difluoromethoxy)-5-[3-[rac-(2S)-morpholin-2-yl]phenoxy]phenyl]-1-methyl-pyrazol-4-yl]pyrazolo[1,5-a]pyrimidine-3-carboxamide] | 0.39 nM | 0.37 nM | 11 nM
17 | CN1CCCC1Cn1cc(NC(=O)c2cnn3cccnc23)c(-c2cc(Oc3cccc(C4CNCCO4)c3)ccc2OC(F)F)n1 (racemic) [Example 41, N-[3-[2-(difluoromethoxy)-5-(3-morpholin-2-ylphenoxy)phenyl]-1-[[rac-(2R)-1-methylpyrrolidin-2-yl]methyl]pyrazol-4-yl]pyrazolo[1,5-a]pyrimidine-3-carboxamide] | 4.4 nM | 1.4 nM | 210 nM
18 | Cc1ccc(Oc2ccc(OC(F)F)c(-c3nn(CC4CCCN4C)cc3NC(=O)c3cnn4cccnc34)c2)cc1C(=O)N(C)C (racemic) [Example 51, N-[3-[2-(difluoromethoxy)-5-[3-(dimethylcarbamoyl)-4-methyl-phenoxy]phenyl]-1-[[rac-(2R)-1-methylpyrrolidin-2-yl]methyl]pyrazol-4-yl]pyrazolo[1,5-a]pyrimidine-3-carboxamide] | 1.8 nM | 1.3 nM | 45 nM
19 | CCn1cc(NC(=O)c2cnn3cccnc23)c(-c2cc(Oc3cc(F)cc(C4(O)CN(C)C4)c3)ccc2OC(F)F)n1 [Example 107, N-[3-[2-(difluoromethoxy)-5-[3-fluoro-5-(3-hydroxy-1-methyl-azetidin-3-yl)phenoxy]phenyl]-1-ethyl-pyrazol-4-yl]pyrazolo[1,5-a]pyrimidine-3-carboxamide] | 0.49 nM | 0.43 nM | 37 nM
20 | CN1CCC(n2cc(Oc3ccc(OC(F)F)c(-c4nn(C)cc4NC(=O)c4cnn5cccnc45)c3)cn2)C1 (racemic) [Example 140, N-[3-[2-(difluoromethoxy)-5-[1-[rac-(3S)-1-methylpyrrolidin-3-yl]pyrazol-4-yl]oxy-phenyl]-1-methyl-pyrazol-4-yl]pyrazolo[1,5-a]pyrimidine-3-carboxamide] | 1.9 nM | 2.6 nM | 44 nM
21 | NCc1cccc(Oc2ccc(OC(F)F)c(-c3n[nH]cc3NC(=O)c3cnn4cccnc34)c2)c1 [Example 6, N-[3-[5-[3-(aminomethyl)phenoxy]-2-(difluoromethoxy)phenyl]-1H-pyrazol-4-yl]pyrazolo[1,5-a]pyrimidine-3-carboxamide] | 0.2 nM | 0.23 nM | 11 nM
22 | Cn1cc(NC(=O)c2cnn3cccnc23)c(-c2cc(Oc3ccc(CC(=O)N4CCC4)cc3)ccc2OC(F)F)n1 [Example 149, N-[3-[5-[4-[2-(azetidin-1-yl)-2-oxo-ethyl]phenoxy]-2-(difluoromethoxy)phenyl]-1-methyl-pyrazol-4-yl]pyrazolo[1,5-a]pyrimidine-3-carboxamide] | 0.17 nM | 0.28 nM | 20 nM
23 | Cn1cc(NC(=O)c2cnn3cccnc23)c(-c2cc(Oc3cccc(CNC(CO)CO)c3)ccc2OC(F)F)n1 [Example 48, N-[3-[2-(difluoromethoxy)-5-[3-[[[2-hydroxy-1-(hydroxymethyl)ethyl]amino]methyl]phenoxy]phenyl]-1-methyl-pyrazol-4-yl]pyrazolo[1,5-a]pyrimidine-3-carboxamide] | 0.64 nM | 0.76 nM | 86 nM
24 | CCn1cc(NC(=O)c2cnn3cccnc23)c(-c2cc(Oc3cccc(C4(O)CNC4)c3)ccc2OC(F)F)n1 [Example 112, N-[3-[2-(difluoromethoxy)-5-[3-(3-hydroxyazetidin-3-yl)phenoxy]phenyl]-1-ethyl-pyrazol-4-yl]pyrazolo[1,5-a]pyrimidine-3-carboxamide] | 0.46 nM | 0.38 nM | 110 nM

Reference: US12528812B2 (Genentech, Inc., priority 2020, dated 2026)
